Laboratory results from patent US20170354147A1, “SAFENING AMINOPYRALID COMPOSITIONS IN BRASSICA SPECIES WITH CLOPYRALID AND METHODS OF USE THEREOF” (Dow AgroSciences LLC, priority 2016, published 2017).
Where “and” joins values, the source holds several entries; their conditions need not be identical. Equal values may be shown once.

Experiments:
Format in all cases: in vivo
[1] = system: Aparima Gold swede (Brassica sp., BRSSS); assay: Field trials Canterbury, New Zealand, postemergence crop safety (visual injury, growth inhibition) to Aparima Gold swede
Text: (§1) The following equation was used to calculate the expected activity of mixtures containing two active ingredients, A and B:
(§2) Expected=A+B−(A×B/100) • A=observed efficacy of active ingredient A at the same concentration as used in the mixture; • B=observed efficacy of active ingredient B at the same concentration as used in the mixture.
(§3) BRSOM=Brassica oleracea var. acephala subvar. Medullosa (stem kale) BRSSS=Brassica sp. (Aparima Gold swede) BRSNS-RR=Brassica napus (spring rape or Spring Argentine rape, Roundup® Ready) g ae/ha=grams acid equivalent per hectare Mean % visual injury=observed value of percent (%) injury rated visually Observed Mean % visual injury=observed value of percent (%) injury rated visually Colby predicted mean % visual injury=expected value of percent (%) injury as calculated by Colby's equation Mean % visual leafroll=observed value of percent (%) leafroll rated visually Observed Mean % visual leafroll=observed value of percent (%) leafroll rated visually Colby predicted mean % visual leafroll=expected value of percent (%) leafroll as calculated by Colby's equation Mean % visual growth inhibition=observed value of percent (%) growth inhibition rated visually Observed Mean % visual growth inhibition=observed value of percent (%) growth inhibition rated visually Colby predicted mean % visual growth inhibition=expected value of percent (%) growth inhibition as calculated by Colby's equation
Two field trials were established in Canterbury, New Zealand to evaluate crop safety of herbicide treatments to leafy forage brassica crops (Aparima Gold swede (Brassica sp., BRSSS)). Trials were designed as randomized complete blocks with four replicates. All trials were established as weed-free tolerance trials with plot size of 3 meters (m) by 8 m (width×length). The crops were grown using normal cultural practices for fertilization, seeding, and maintenance to ensure good growth of the crop.
All herbicide treatments were applied post-emergence with applications made to the crops at the 3 to 5-leaf stage. Herbicides were applied with backpack sprayers using carbon dioxide (CO2) as a propellant. […] All treatments were applied with Uptake adjuvant (paraffinic oil/Non-Ionic Surfactant blend) at 1% v/v. Phytotoxicity to the crops was assessed visually at several intervals after application as percent overall injury, compared to an untreated control plot. The overall injury assessments were based on visual ratings of growth inhibition, leaf deformity, epinasty, and chlorosis.
Aminopyralid-TIPA was applied as Tordon™ Max Herbicide (30 g ae/L SL), and clopyralid-TIPA was applied as Versatill™ (300 g ae/L SL),

[2] = system: Aparima Gold swede (Brassica sp., BRSSS); assay: Pot trials, postemergence crop safety (visual injury) to Aparima Gold swede
Text: as §1, §2, §3
(§4) Two pot trials were established at Dow AgroSciences Waireka Field Research Station, New Zealand to evaluate crop safety of herbicide treatments to two species of leafy and bulb forage brassica crops (stem kale (Brassica oleracea var. acephala subvar. medullosa, BRSOM) and Aparima Gold swede (Brassica sp., BRSSS)). Trials were designed as randomized complete blocks with five replicates. Trials were established as weed-free tolerance trials. Pot size was 10 by 10 centimeters (cm, width×length). The forage brassica crops were grown using normal cultural practices for fertilization, seeding, watering and maintenance to ensure good growth of the crops.
(§5) All herbicide treatments were applied post-emergence with applications made to the crops at the 2 to 5-leaf stage. Herbicides were applied with a belt spray chamber system with compressed air as a propellant. The sprayer utilized a flat fan spray nozzle calibrated to deliver a uniform spray pattern that provided thorough coverage of the foliage using a 200 liters per hectare (L/ha) spray volume. All treatments were applied with Uptake adjuvant (paraffinic oil/Non-Ionic Surfactant blend) at 0.5% volume per volume (v/v). Phytotoxicity to the crops was assessed visually at several intervals after application as percent overall injury, compared to an untreated control plot. The overall injury assessments were based on visual ratings of growth inhibition, leaf deformity, epinasty, and chlorosis.
(§6) Aminopyralid-triisopropanolammonium (TIPA) was applied as Tordon™ Max Herbicide (30 grams acid equivalent per liter (g ae/L) soluble (liquid) concentrate (SL)), and clopyralid-TIPA was applied as Versatill™ (300 g ae/L SL), The compositions tested, application rates employed, plant species tested, and results are given in Table 1 through Table 3.

[3] = system: Spring Argentine canola (Brassica napus, BRSNS), Nex 1012 glyphosate-tolerant, BRSNS-RR; assay: Field trials Canada, postemergence crop safety (visual injury) to glyphosate-tolerant Spring Argentine canola
Text: as §3
Field trials were established in Canada (in Manitoba, Alberta, and Saskatchewan) to evaluate crop safety of herbicide treatments to Spring Argentine canola (Brassica napus, BRSNS). Trials were designed as randomized complete blocks with four replicates. Trials were established as weed-free crop tolerance trials with plot sizes of 2-3 meters (m) by 8-25 m (width×length). The crops were grown using normal cultural practices for fertilization, seeding, and maintenance to ensure good growth of the crop.
The overall injury assessments were based on visual ratings of growth inhibition, leaf deformity, epinasty, chlorosis and delay in maturity. Assessments were made at 8-10 days after treatment (DAT) for an initial rating, 14-17 DAT for an early-season rating, 28-32 DAT for a mid-season rating, and 42-55 DAT for a late-season rating.
Aminopyralid-triisopropanolammonium (TIPA) was applied as Milestone® (240 g ae/L SL); clopyralid-olamine was applied as Lontrel™ 360 (360 g ae/L SL); and glyphosate-dimethylammonium was applied as Vantage™ XRT (480 g ae/L SL).

[4] = system: stem kale (Brassica oleracea var. acephala subvar. medullosa, BRSOM); assay: Pot trials, postemergence crop safety (visual injury, leafroll) to stem kale
Text: as §1, §2, §3, §4, §5, §6

[5] = 10 g ae/ha, with Glyphosate-DMA 450 g ae/ha
[6] = 20 g ae/ha, with Glyphosate-DMA 450 g ae/ha
[7] = Glyphosate-DMA 450 g ae/ha alone (Aminopyralid-TIPA 0 g ae/ha)

In the case of `Nc1cc(Cl)nc(C(=O)O)c1Cl` [Aminopyralid TIPA, tris (2-hydroxypropyl)ammonium 4-amino-3,6-dichloropyridine-2-carboxylate], the “Mean % Visual Growth Inhibition” value ([1]; 13DAA1, 60 g ae/ha) is reported as 28.8% and 28.9%, the “Mean % Visual Injury” value ([1]; 13DAA1, 60 g ae/ha) is reported as 22.5% and the “Mean % Visual Injury” value ([1]; 22DAA1, 60 g ae/ha) is reported as 28.8%. The “Mean % Visual Growth Inhibition” value ([1]; 28DAA1, 60 g ae/ha) was 45.0%, the “Mean % Visual Injury” value ([1]; 28DAA1, 60 g ae/ha) was 38.8% and the “Mean % Visual Growth Inhibition” value ([1]; 56DAA1, 60 g ae/ha) was 8.8%. For the same molecule, the “Mean % Visual Injury” value ([2]; 3DAA1, 60 g ae/ha) was 6.8%, the “Mean % Visual Injury” value ([2]; 7DAA1, 60 g ae/ha) was 9.6% and the “Mean % Visual Injury” value ([2]; 15DAA1, 60 g ae/ha) was 15.4%. The “Mean % Visual Injury” value ([2]; 28DAA1, 60 g ae/ha) was 15.6%, the “Mean % Visual Injury Early (14-17) DAT” value [3, 5] was 1.9% and the “Mean % Visual Injury Initial (8-10 DAT)” value [3, 5] was 2.8%. For the same molecule, the “Mean % Visual Injury Late (42-55 DAT)” value [3, 5] was 1.5%, the “Mean % Visual Injury Mid (28-32 DAT)” value [3, 5] was 2.3% and the “Mean % Visual Injury Early (14-17) DAT” value [3, 6] was 5%. For the same molecule, the “Mean % Visual Injury Initial (8-10 DAT)” value [3, 6] was 5%, the “Mean % Visual Injury Late (42-55 DAT)” value [3, 6] was 0.6% and the “Mean % Visual Injury Mid (28-32 DAT)” value [3, 6] was 5.6%.
In the case of `O=C(O)c1nc(Cl)ccc1Cl` [Clopyralid TIPA, (2RS,2′RS,2″RS)-tris(2-hydroxypropyl)ammonium 3,6-dichloropyridine-2-carboxylate], the “Mean % Visual Leafroll” value ([4]; 1DAA1, 90 g ae/ha) is reported as 0.0%, the “Mean % Visual Leafroll” value ([4]; 1DAA1, 180 g ae/ha) is reported as 0.0% and the “Mean % Visual Leafroll” value ([4]; 1DAA1, 360 g ae/ha) is reported as 0.0%. The “Mean % Visual Leafroll” value ([4]; 4DAA1, 90 g ae/ha) was 0.0%, the “Mean % Visual Leafroll” value ([4]; 4DAA1, 180 g ae/ha) was 0.0% and the “Mean % Visual Injury” value ([4]; 7DAA1, 45.0 g ae/ha) was 0.0% and 0.7%. For the same molecule, the “Mean % Visual Injury” value ([4]; 7DAA1, 90.0 g ae/ha) was 0.0% and 0.7%, the “Mean % Visual Injury” value ([4]; 7DAA1, 180.0 g ae/ha) was 0.0% and 0.7% and the “Mean % Visual Injury” value ([4]; 7DAA1, 360.0 g ae/ha) was 0.0% and 0.7%. The “Mean % Visual Injury” value ([4]; 15DAA1, 22.5 g ae/ha) was 0.0%, the “Mean % Visual Injury” value ([4]; 15DAA1, 45 g ae/ha) was 0% and the “Mean % Visual Injury” value ([4]; 15DAA1, 90 g ae/ha) was 0%. For the same molecule, the “Mean % Visual Leafroll” value ([4]; 15DAA1, 90 g ae/ha) was 0.0%, the “Mean % Visual Leafroll” value ([4]; 15DAA1, 180 g ae/ha) was 0.0% and the “Mean % Visual Injury” value ([4]; 15DAA1, 180.0 g ae/ha) was 0.0%. For the same molecule, the “Mean % Visual Leafroll” value ([4]; 15DAA1, 360 g ae/ha) was 0.0%, the “Mean % Visual Injury” value ([4]; 15DAA1, 360.0 g ae/ha) was 0.0% and the “Mean % Visual Injury” value ([4]; 28DAA1, 90.0 g ae/ha) was 0.0%. The “Mean % Visual Injury” value ([4]; 28DAA1, 360 g ae/ha) was 0%, the “Mean % Visual Leafroll” value ([4]; 28DAA1, 360 g ae/ha) was 0.0% and the “Mean % Growth Inhibition” value ([1]; 13DAA1, 45 g ae/ha) was 2.8%. For the same molecule, the “Mean % Visual Injury” value ([1]; 13DAA1, 45 g ae/ha) was 0.8%, the “Mean % Growth Inhibition” value ([1]; 13DAA1, 90 g ae/ha) was 8.8% and the “Mean % Growth Inhibition” value ([1]; 13DAA1, 180 g ae/ha) was 7.5%. The “Mean % Visual Injury” value ([1]; 13DAA1, 180 g ae/ha) was 2.3%, the “Mean % Visual Injury” value ([1]; 22DAA1, 45 g ae/ha) was 0.0% and the “Mean % Growth Inhibition” value ([1]; 28DAA1, 180 g ae/ha) was 3.8%. The “Mean % Visual Injury” value ([1]; 28DAA1, 180 g ae/ha) was 3.0%, the “Mean % Growth Inhibition” value ([1]; 56DAA1, 45 g ae/ha) was 6.0% and the “Mean % Visual Injury” value ([2]; 3DAA1, 90 g ae/ha) was 2.2%. The “Mean % Visual Injury” value ([2]; 7DAA1, 90 g ae/ha) was 0.4%, the “Mean % Visual Injury” value ([2]; 15DAA1, 90 g ae/ha) was 0.0% and the “Mean % Visual Injury” value ([2]; 28DAA1, 90 g ae/ha) was 0.0%.
In the case of `CNC.O=C(O)CNCP(=O)(O)O` [Glyphosate-DMA], the “Mean % Visual Injury Early (14-17) DAT” value [3, 7] is reported as 0.4%, the “Mean % Visual Injury Initial (8-10 DAT)” value [3, 7] is reported as 1% and the “Mean % Visual Injury Late (42-55 DAT)” value [3, 7] is reported as 0.2%. The “Mean % Visual Injury Mid (28-32 DAT)” value [3, 7] was 1.5%.
